Measured values: ChEMBL document CHEMBL1208734, “Aryl boronic acid inhibition of synthetic melanin polymerization” (Bioorg Med Chem Lett, 2010)

Experiments:
[1] = Inhibition of synthetic melanin polymerization after 30 to 60 mins by UV-vis spectroscopic analysis; format: functional
[2] = Inhibition of synthetic melanin polymerization at 2 mM after 30 to 60 mins by UV-vis spectroscopic analysis relative to control; format: functional; details: values are per cent of control

Compound	IC50 [1]	residual activity [2]
OB(O)c1ccccc1 [PHENYLBORONIC ACID]	1840 µM	51.7%
COc1ccc(B(O)O)cc1	6200 µM	66.1%
N#Cc1ccc(B(O)O)cc1	590 µM	19.4%
O=[N+]([O-])c1ccc(B(O)O)cc1	550 µM	21.5%
OB(O)c1ccc(Br)cc1	1030 µM	37.7%
CC(=O)c1ccc(B(O)O)cc1	690 µM	30.5%
OB(O)c1ccc(Cl)cc1	1310 µM	41.2%
OB(O)c1ccc(F)cc1	1840 µM	49.7%
OB(O)c1ccc(C(F)(F)F)cc1	800 µM	26.9%
Cc1ccc(B(O)O)cc1 [TOLYL BORONIC ACID]	4450 µM	62.8%
